Where “and” joins values, the source holds several entries; their conditions need not be identical. Identical values can stand only once. Like-named read-outs stand apart in the source and are kept apart here.
Tests used:
[1] = target: T1, RNA-dependent DNA polymerase activity of HIV reverse transcriptase (Human immunodeficiency virus type 1 group M subtype B, UniProt P03366); test: RNA-dependent DNA polymerase activity assay of HIV reverse transcriptase; type: biochemical, HIV-1; conditions: 10 μM inhibitor concentration, activity in presence / in absence of analog x 100; for remaining activity at 10 µM: read-out: Residual activity (%) Polymerase
T1 construct: made in house
In short: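 Single-concentration test of mappicine analogs at 10 μM final against the RNA-dependent DNA polymerase activity of HIV RT. Value is % residual activity: polymerase activity with analog divided by activity without analog, ×100.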

[2] = target: T2, RNase H activity of HIV reverse transcriptase (Human immunodeficiency virus type 1 group M subtype B, UniProt P03366); test: Fluorescence (FRET)-based RNase H assay of HIV reverse transcriptase; type: biochemical, HIV-1; conditions: for remaining activity at 10 µM / Residual activity (%) RNase H: 10 μM inhibitor concentration, activity in presence / in absence of analog x 100; for remaining activity at 10 µM: read-out: Residual activity (%) RNase H; for IC50: in vitro, read-out: IC50 (μM) against HIV RNase H in vitro
T2 construct: 2.5 nM of the p51/p66 RT heterodimer in the assay; made in house

HIV-1 replication [3] = test: HIV-1 replication in cultured cells (cell culture viral growth assay); type: cell-based
[4] = target: T2, RNase H activity of HIV reverse transcriptase; conditions: read-out: IC50 of RNase H inhibition; literature (Borkow et al. 1997); cited from earlier work
HIV-1 replication [5] = conditions: published RNase H inhibitors; cited from earlier work
cells [6] = conditions: cited from earlier work
cells [7] = conditions: cited from earlier work; remark: listed apart in the source
[8] = tested on: mutant HIV-1 strain with K103N+Y181C in the viral reverse transcriptase; test: Replication of NNRTI-resistant mutant HIV-1 strain K103N+Y181C in cultured cells; type: cell-based; conditions: K103N+Y181C mutant HIV-1; read-out: EC50 of inhibition of replication of resistant virus strain
[9] = tested on: mutant HIV-1 strain with V106A+Y181C in the viral reverse transcriptase; test: Replication of NNRTI-resistant mutant HIV-1 strain V106A+Y181C in cultured cells; type: cell-based; conditions: V106A+Y181C mutant HIV-1; read-out: EC50 of inhibition of replication of resistant virus strain
[10] = Human immunodeficiency virus 1, cell culture viral growth assays, read-out: EC50 (μM) against HIV-1 replication

SMILES | Residual activity (%) Polymerase [1] [%] | Residual activity (%) RNase H [2] [%] | further results
CCC(O)c1cc2n(c(=O)c1C)Cc1c-2nc2ccc(NC(=O)OC(C)(C)C)cc2c1[Si](C)(C)C (stereo not drawn) [5 (AG 2M), 2-tert-Butyloxycarbonylamino-7-(1-hydroxypropyl)-8-methyl-12-trimethylsilanyl-11H-indolizino [1,2-b]quinolin-9-one] | – | – | remaining activity at 10 µM [1]: 80%; remaining activity at 10 µM [2]: 47%; IC50 [2]: < 10 µM and 8 µM; EC50 (HIV-1 replication [3]; [10]): ~5 µM
CC(C)(C)c1ccc(C(=O)NN=Cc2c(O)ccc3ccccc23)cc1 [BBNH, N-4-(t-butylbenzoyl)-2-hydroxy-1-naphthaldehyde hydrazone] | – | – | IC50 [2]: 1.8 µM; IC50 [4]: ~2 µM; antiviral activity against HIV-1 replication in cultured cells (in words) (HIV-1 replication [5]): demonstrated antiviral activity against HIV-1 replication in cultured cells; toxicity to cells (in words) (cells [6]): highly toxic to cells
O=C(O)C(=NNc1ccc(Cl)cc1)C(=O)O [CPHM, 2-[(4-chlorophenyl)-hydrazono]-malonic acid] | – | – | antiviral activity against HIV-1 replication in cultured cells (in words) (HIV-1 replication [5]): cannot inhibit HIV-1 replication in cultured cells; ability to penetrate cells (in words) (cells [7]): Neither CPHM nor BTOBA are able to penetrate cells
CCCc1c2c(nc3ccc(Cl)cc13)-c1cc(C(O)CCC3CCCCC3)c(C)c(=O)n1C2 (stereo not drawn) [Compound 7.5.6] | – | – | % inhibition of RNase H at 20 μM ([2]; 20 μM inhibitor concentration): 100%; inhibitory activity against HIV-1 RNase H (in words) ([2]; dose-response curves FIG. 13, 10 μM or 20 μM screens): possess inhibitory activity against HIV-1 RNase H; EC50 (HIV-1 replication [3]; wild-type HIV-1 in cultured cells, read-out: EC50 of inhibition of replication of wild-type HIV-1): ~3 µM; EC50 [8]: 3.5 µM; EC50 [9]: 4.2 µM
CCc1c2c(nc3ccc(N)cc13)-c1cc(C(O)CC)c(C)c(=O)n1C2 (stereo not drawn) [5 (AG 6M), 2-Amino-12-ethyl-7-(1-hydroxypropyl)-8-methyl-1 1H-indolizinol[1,2-b]quinolin-9-one] | – | – | remaining activity at 10 µM [1]: 76%; remaining activity at 10 µM [2]: 57%; IC50 [2]: < 10 µM and 10 µM; EC50 (HIV-1 replication [3]; [10]): ~5 µM
Cc1c(C(O)Cc2ccccc2)cc2n(c1=O)Cc1c-2nc2ccccc2c1[Si](C)(C)C (stereo not drawn) [5 (5Aε)] | 54 | 93 | –
Cc1c(C(=O)CCC2CCCCC2)cc2n(c1=O)Cc1c-2nc2ccc(F)cc2c1[Si](C)(C)C(C)(C)C [5 (4Bδκ)] | 56 | 96 | –
CCC(=O)c1cc2n(c(=O)c1C)Cc1c-2nc2ccc(C)cc2c1[Si](C)(C)C [5 (5Cακ)] | 93 | 109 | –
COc1ccc2nc3c(c(-c4ccccc4)c2c1)Cn1c-3cc(C(O)C(C)(C)C)c(C)c1=O (stereo not drawn) [5 (3Dβ)] | 85 | 70 | –
CCC(O)c1cc2n(c(=O)c1C)Cc1c-2nc2ccccc2c1-c1ccccc1 (stereo not drawn) [5 (3Aα)] | 90 | 97 | –
O=C(O)C(=O)CC(=O)c1ccc(NC(=O)c2ccccc2)s1 [BTOBA, 4-[5-(benzoylamino)thien-2-yl]-2,4-dioxobutanoic acid] | – | – | antiviral activity against HIV-1 replication in cultured cells (in words) (HIV-1 replication [5]): cannot inhibit HIV-1 replication in cultured cells; ability to penetrate cells (in words) (cells [7]): Neither CPHM nor BTOBA are able to penetrate cells
CCCCCCc1c2c(nc3ccc(OC)cc13)-c1cc(C(O)Cc3ccccc3)c(C)c(=O)n1C2 (stereo not drawn) [5 (8Dε)] | 73 | 82 | –
CCC(O)c1cc2n(c(=O)c1C)Cc1c-2nc2ccc(C)cc2c1[Si](C)(C)C(C)(C)C (stereo not drawn) [5 (4Cα)] | 94 | 91 | –
CCC(=O)c1cc2n(c(=O)c1C)Cc1c-2nc2ccc(OC)cc2c1-c1ccccc1 [5 (3Dακ)] | 76 | 104 | –
Cc1c(C(O)Cc2ccccc2)cc2n(c1=O)Cc1c-2nc2ccc(F)cc2c1[Si](C)(C)C(C)(C)C (stereo not drawn) [5 (4Bε)] | 61 | 89 | –
Cc1ccc2nc3c(c([Si](C)(C)C(C)(C)C)c2c1)Cn1c-3cc(C(O)C(C)(C)C)c(C)c1=O (stereo not drawn) [5 (4Cβ)] | 67 | 94 | –
CCCCCCc1c2c(nc3ccccc13)-c1cc(C(O)Cc3ccccc3)c(C)c(=O)n1C2 (stereo not drawn) [5 (8Aε)] | 58 | 71 | –
CCC(O)c1cc2n(c(=O)c1C)Cc1c-2nc2ccccc2c1[Si](C)(C)C(C)(C)C (stereo not drawn) [5 (4Aα)] | 67 | 104 | –
CCCCCCc1c2c(nc3ccc(OC)cc13)-c1cc(C(O)CC)c(C)c(=O)n1C2 (stereo not drawn) [5 (8Dα)] | 85 | 66 | –
Cc1c(C(O)C(C)(C)C)cc2n(c1=O)Cc1c-2nc2ccccc2c1-c1ccccc1 (stereo not drawn) [5 (3Aβ)] | 54 | 95 | –
CCCCCCc1c2c(nc3ccc(F)cc13)-c1cc(C(=O)CCC3CCCCC3)c(C)c(=O)n1C2 [5 (8Bδκ)] | 80 | 95 | –
Cc1c(C(=O)CCC2CCCCC2)cc2n(c1=O)Cc1c-2nc2ccc(F)cc2c1[Si](C)(C)C [5 (5Bδκ)] | 46 | 78 | –
Cc1c(C(=O)C(C)(C)C)cc2n(c1=O)Cc1c-2nc2ccc(F)cc2c1-c1ccccc1 [5 (3Bβκ)] | 61 | 95 | –
CCc1c2c(nc3ccc(O)cc13)-c1cc(C(O)CC)c(C)c(=O)n1C2 (stereo not drawn) [5 (AG 8M), 12-Ethyl-2-hydroxy-7-(1-hydroxypropyl)-8-methyl-11H-indolizino[1,2-b]quinolin-9-one] | – | – | remaining activity at 10 µM [1]: 69%; remaining activity at 10 µM [2]: 87%
COc1ccc2nc3c(c([Si](C)(C)C)c2c1)Cn1c-3cc(C(O)C(C)(C)C)c(C)c1=O (stereo not drawn) [5 (5Dβ)] | 76 | 102 | –
CCCCCCc1c2c(nc3ccc(C)cc13)-c1cc(C(O)C(C)(C)C)c(C)c(=O)n1C2 (stereo not drawn) [5 (8Cβ)] | 111 | 93 | –
CCC(=O)c1cc2n(c(=O)c1C)Cc1c-2nc2ccccc2c1[Si](C)(C)C [5 (5Aακ)] | 91 | 103 | –
